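Results reflect a 48-hour exposure of cells in 96-well plates to compound at five concentrations. The concentration for 50% growth inhibition is given as GI50.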 Active and inactive are the calls of the source. Rule as the data show it: active = GI50 up to about 1.1 µM and inactive = higher.

Results on twelve compounds are retold here after ChEMBL document CHEMBL1201862, “PubChem BioAssay data set” (2004).

Some test systems named below: HCC 2998; SNB-19; SK-OV-3; SNB-75; Malme-3M; OVCAR-3; CCRF-CEM; M19-MEL; HOP-92; OVCAR-5; SN12C; UACC-62; NCI-H460; U-251; RXF 393; UACC-257; NCI-H226.
Holding throughout (assay): inhibition of tumour cell growth, NCI panel, 48 h

For `COc1ccc2c(c1)OCCc1cn[nH]c1-2`, the GI50 in the assay on HCC 2998 was 83.4 µM (inactive); in the assay with SNB-19 it was 88.7 µM (inactive); with SK-OV-3 it was 29.7 µM (inactive); in the assay with SNB-75, 28.4 µM (inactive); with Malme-3M it was 38.9 µM (inactive); with OVCAR-3, 29 µM (inactive). The GI50 was 37.4 µM (inactive) in the assay with CCRF-CEM; 69 µM (inactive) in the assay with M19-MEL; 15.4 µM (inactive) in the assay on HOP-92; 35.7 µM (inactive) in the assay on OVCAR-5; 38.6 µM (inactive) in the assay with SN12C; 22.8 µM (inactive) with UACC-62. The GI50 is 31.6 µM (inactive) in the assay with NCI-H460, 28.8 µM (inactive) in the assay on U-251, 61.2 µM (inactive) in the assay with RXF 393 and 32.7 µM (inactive) with UACC-257.
As to `CCOc1ccc(NCC(=O)N2CC(=O)Nc3ccccc32)cc1`, the GI50 in the assay on HCC 2998, in the assay with SNB-19, in the assay with SK-OV-3, in the assay on SNB-75, in the assay with Malme-3M and with OVCAR-3 was > 100 µM (inactive) in each case. The GI50 with CCRF-CEM, with M19-MEL, in the assay with HOP-92, in the assay on OVCAR-5, with SN12C and in the assay on UACC-62 was > 100 µM (inactive) each time. Further, the GI50 in the assay on NCI-H460, in the assay with U-251, in the assay with RXF 393, with UACC-257 and with NCI-H226 was > 100 µM (inactive) each time.
With `COc1cc(NC(C)=O)c2[nH]c3c(C)cc(NC(C)=O)c(C)c3c2c1`, the GI50 in the assay with HCC 2998, with SNB-19, in the assay on SK-OV-3, in the assay on SNB-75, in the assay with OVCAR-3 and with CCRF-CEM was > 100 µM (inactive) throughout. The GI50 in the assay on M19-MEL, in the assay with HOP-92, with SN12C, in the assay on NCI-H460, in the assay on U-251 and with RXF 393 was > 100 µM (inactive) throughout. The GI50 in the assay with NCI-H226 is > 100 µM (inactive).
`O=C1c2ccccc2C(=O)N1Cc1ccccc1-c1c2nc(c(-c3ccccc3CN3C(=O)c4ccccc4C3=O)c3ccc([nH]3)c(-c3ccccc3CN3C(=O)c4ccccc4C3=O)c3nc(c(-c4ccccc4CN4C(=O)c5ccccc5C4=O)c4ccc1[nH]4)C=C3)C=C2`: the GI50 in the assay with SK-OV-3, in the assay with SNB-75, in the assay with Malme-3M, with OVCAR-3, with CCRF-CEM and in the assay on M19-MEL was > 100 µM (inactive) each time. Further, the GI50 with HOP-92, in the assay on OVCAR-5, in the assay on SN12C, in the assay on UACC-62, with NCI-H460 and in the assay on U-251 was > 100 µM (inactive) throughout. Moreover, the GI50 in the assay on RXF 393, in the assay on UACC-257 and in the assay on NCI-H226 was > 100 µM (inactive) throughout.
With `COC(=O)C(CC(C)C)NC(=O)NC12CC3CC(CC(F)(C3)C1)C2` (centres undefined), the GI50 in the assay with HCC 2998 was 29.3 µM (inactive); with SNB-19, > 100 µM (inactive); with SK-OV-3 it was > 100 µM (inactive); in the assay on SNB-75, 27.1 µM (inactive); in the assay with Malme-3M it was > 100 µM (inactive); in the assay on OVCAR-3 it was > 100 µM (inactive). The GI50 is > 100 µM (inactive) in the assay on CCRF-CEM; > 100 µM (inactive) with M19-MEL; 50.6 µM (inactive) with HOP-92; > 100 µM (inactive) in the assay on OVCAR-5; > 100 µM (inactive) in the assay with UACC-62; > 100 µM (inactive) with NCI-H460. Besides, the GI50 in the assay on U-251, in the assay on RXF 393 and in the assay on UACC-257 was > 100 µM (inactive) throughout.
Turning to `CC(=O)OC1CC2OC(Cc3ccccc32)O1` (centres undefined), the GI50 was > 100 µM (inactive) with HCC 2998; > 100 µM (inactive) in the assay on SNB-19; > 100 µM (inactive) with SK-OV-3; 65 µM (inactive) with SNB-75; 27.6 µM (inactive) in the assay on Malme-3M; > 100 µM (inactive) in the assay with OVCAR-3. For the same compound, the GI50 with CCRF-CEM is 56.1 µM (inactive); in the assay on M19-MEL it was 60.4 µM (inactive); in the assay on HOP-92 it was 34 µM (inactive); in the assay on SN12C it was 64.1 µM (inactive); in the assay with UACC-62, > 100 µM (inactive); with NCI-H460, > 100 µM (inactive). The GI50 in the assay with U-251 was 52.1 µM (inactive); in the assay with RXF 393, > 100 µM (inactive); with UACC-257 it was > 100 µM (inactive); in the assay with NCI-H226, 36.8 µM (inactive).
With `O=C(C=P(c1ccccc1)(c1ccccc1)c1ccccc1)CC(=S)CC(=O)C=P(c1ccccc1)(c1ccccc1)c1ccccc1`, the GI50 is 3.85 µM (inactive) in the assay with HCC 2998; 4.33 µM (inactive) in the assay with SNB-19; 3.95 µM (inactive) with SK-OV-3; 5.01 µM (inactive) in the assay on Malme-3M; 2.61 µM (inactive) in the assay with OVCAR-3; 3.24 µM (inactive) in the assay on CCRF-CEM. Further, the GI50 is 4.57 µM (inactive) with M19-MEL; 1.65 µM (inactive) with HOP-92; 18.2 µM (inactive) in the assay on OVCAR-5; 3.39 µM (inactive) in the assay with SN12C; 4.31 µM (inactive) in the assay with UACC-62; 4.36 µM (inactive) in the assay on NCI-H460. Besides, the GI50 in the assay with U-251 is 2.29 µM (inactive); in the assay on RXF 393, 5.61 µM (inactive); with UACC-257, 3.15 µM (inactive); in the assay on NCI-H226 it was 5.85 µM (inactive).
Turning to `CC(C)OC(=O)C1Cc2c([nH]c3ccccc23)C(c2ccccc2)N1` (centres undefined), the GI50 with HCC 2998 was 30.5 µM (inactive); in the assay with SNB-19, > 100 µM (inactive); in the assay on SK-OV-3, > 100 µM (inactive); in the assay with SNB-75, 18.3 µM (inactive); in the assay on Malme-3M, 25.7 µM (inactive); in the assay with OVCAR-3, > 100 µM (inactive). Besides, the GI50 in the assay on CCRF-CEM was 79.4 µM (inactive); in the assay with M19-MEL, > 100 µM (inactive); in the assay with HOP-92, 55 µM (inactive); in the assay with OVCAR-5, > 100 µM (inactive); in the assay on SN12C, > 100 µM (inactive); in the assay on UACC-62, > 100 µM (inactive). In addition, the GI50 with NCI-H460 was > 100 µM (inactive); in the assay on U-251, > 100 µM (inactive); in the assay with RXF 393 it was 23.8 µM (inactive); with UACC-257 it was 68.5 µM (inactive); with NCI-H226, > 100 µM (inactive).
As for `O=C1NC2OC(C(O)CO)C(O)C2O1` (centres undefined), the GI50 in the assay with HCC 2998, with SNB-19, in the assay with SK-OV-3, with SNB-75, in the assay with Malme-3M and in the assay on OVCAR-3 was > 100 µM (inactive) each time. Besides, the GI50 with CCRF-CEM, in the assay on M19-MEL, in the assay on HOP-92, in the assay on OVCAR-5, in the assay with SN12C and in the assay on UACC-62 was > 100 µM (inactive) each time. The GI50 in the assay with NCI-H460, in the assay with U-251 and in the assay with UACC-257 was > 100 µM (inactive) each time.
On to `Cc1ccccc1NC(=O)C(=O)CC(=O)c1ccc([N+](=O)[O-])cc1`, for which the GI50 is 23.8 µM (inactive) in the assay with HCC 2998; > 100 µM (inactive) in the assay on SNB-19; > 100 µM (inactive) in the assay on SK-OV-3; 39.6 µM (inactive) in the assay with SNB-75; > 100 µM (inactive) with Malme-3M; > 100 µM (inactive) in the assay with OVCAR-3. Besides, the GI50 in the assay on M19-MEL, in the assay with HOP-92, in the assay with OVCAR-5, in the assay with SN12C, in the assay with UACC-62 and with NCI-H460 was > 100 µM (inactive) in each case. The GI50 in the assay with U-251, in the assay with RXF 393, in the assay on UACC-257 and in the assay on NCI-H226 was > 100 µM (inactive) in each case.
Take `COc1cc(C(=O)C/C(CCC(=O)Nc2ccc(Cl)cc2Cl)=N/NC(=O)C(N)=O)ccc1O`: the GI50 with HCC 2998 is > 100 µM (inactive); in the assay on SNB-19 it was > 100 µM (inactive); with SK-OV-3 it was > 100 µM (inactive); with SNB-75, 7.91 µM (inactive); in the assay with Malme-3M, > 100 µM (inactive); in the assay on OVCAR-3, > 100 µM (inactive). In addition, the GI50 in the assay on CCRF-CEM was > 100 µM (inactive); in the assay with M19-MEL, > 100 µM (inactive); with HOP-92 it was > 100 µM (inactive); in the assay with OVCAR-5, > 100 µM (inactive); with SN12C, > 100 µM (inactive); in the assay with UACC-62, 65.9 µM (inactive). Also, the GI50 in the assay with NCI-H460, in the assay with U-251, in the assay with UACC-257 and in the assay on NCI-H226 was > 100 µM (inactive) each time.
In the case of `COc1cc2c(c(OC)c1OC)-c1ccc(SC)c(=O)cc1[C@@H](NCc1ccc(C#N)cc1)CC2`, the GI50 in the assay with HCC 2998 was 0.00291 µM (active); with SNB-19, 0.0488 µM (active); in the assay with SK-OV-3 it was 0.0031 µM (active); in the assay with SNB-75, 0.00307 µM (active); in the assay on Malme-3M it was 0.00564 µM (active); in the assay on OVCAR-3, 0.00321 µM (active). The GI50 was 0.00414 µM (active) in the assay on CCRF-CEM; 0.00361 µM (active) in the assay on M19-MEL; 0.0307 µM (active) with HOP-92; 0.00736 µM (active) in the assay with OVCAR-5; 0.00449 µM (active) with SN12C; 0.00264 µM (active) with UACC-62. For the same compound, the GI50 was 0.00379 µM (active) in the assay on NCI-H460; 0.0031 µM (active) in the assay on U-251; 0.00185 µM (active) in the assay with RXF 393; 0.00671 µM (active) with UACC-257; 0.00391 µM (active) in the assay on NCI-H226.
